Here are results for one compound from patent US12239638B2, “Crystalline form of a 4-[2-(2-fluorophenoxymethyl)phenyl]piperidine compound” (THERAVANCE BIOPHARMA R&D IP, LLC, priority 2008, dated 2025).

The target in one series is T1, hSERT (Homo sapiens, UniProt P31645).
T1 construct: expressed in transfected cells; host or cells: HEK-293 derived cell line, stably transfected; membranes
Briefly: hSERT membrane radioligand binding assay (3H-citalopram). To be noted: compound of Example 1 tested as TFA salt; read-out: SERT pKi (converted). As for the experimental part:
(§1) Membrane radioligand binding assays were used to measure competitive inhibition of labeled ligand (^3H-citalopram or ^3H-nisoxetine or ^3H-WIN35428) binding to membranes prepared from cells expressing the respective human recombinant transporter (hSERT or hNET or hDAT) in order to determine the pKi values of test compounds at the transporters.
(§2) Recombinant human embryonic kidney (HEK-293) derived cell lines stably transfected with hSERT or hNET, respectively, were grown in DMEM medium supplemented with 10% dialyzed FBS (for hSERT) or FBS (for hNET), 100 μg/ml penicillin, 100 μg/ml streptomycin, 2 mM L-glutamine and 250 μg/ml of the aminoglycoside antibiotic G418, in a 5% CO2 humidified incubator at 37° C. When cultures reached 80% confluence, the cells were washed thoroughly in PBS (without Ca^2+ and Mg^2+) and lifted with 5 mM EDTA in PBS. […] Protein concentration of the membrane suspension was determined using a Bio-Rad Bradford Protein Assay kit. […]
(§3) Following a 60 minute incubation at 22° C. […] Plates were dried overnight at room temperature, ˜45 μl of MicroScint™-20 (Perkin Elmer) added and bound radioactivity quantitated via liquid scintillation spectroscopy. Competitive inhibition curves and saturation isotherms were analyzed using GraphPad Prism Software package (GraphPad Software, Inc., San Diego, CA). […]

The target of another series is T2, hNET (Homo sapiens, UniProt P23975).
T2 construct: expressed in transfected cells; host or cells: HEK-293 derived cell line, stably transfected; membranes
Briefly: hNET membrane radioligand binding assay (3H-nisoxetine). To be noted: compound of Example 1 tested as TFA salt; read-out: NET pKi (converted). As for the experimental part:
as §1, §2, §3

The nature of series [1]: Thermal analysis by differential scanning calorimetry (DSC). It is filed as physicochemical. To be noted: heating ramp 10° C./min from 22° C. to 250° C. As for the experimental part:
Differential scanning calorimetry (DSC) was performed using a TA Instruments Model Q-100 module with a Thermal Analyst controller. Data were collected and analyzed using TA Instruments Thermal Solutions software. A 2.8 mg sample of the crystalline hydrochloride salt of Example 2 was accurately weighed into a covered aluminum pan. After a 5 minute isothermal equilibration period at 22° C., the sample was heated using a linear heating ramp of 10° C./min from 22° C. to 250° C.
(In general: DSC measures the heat that a sample takes up or gives off during a temperature scan.)

T1 sequence (P31645 whole entry): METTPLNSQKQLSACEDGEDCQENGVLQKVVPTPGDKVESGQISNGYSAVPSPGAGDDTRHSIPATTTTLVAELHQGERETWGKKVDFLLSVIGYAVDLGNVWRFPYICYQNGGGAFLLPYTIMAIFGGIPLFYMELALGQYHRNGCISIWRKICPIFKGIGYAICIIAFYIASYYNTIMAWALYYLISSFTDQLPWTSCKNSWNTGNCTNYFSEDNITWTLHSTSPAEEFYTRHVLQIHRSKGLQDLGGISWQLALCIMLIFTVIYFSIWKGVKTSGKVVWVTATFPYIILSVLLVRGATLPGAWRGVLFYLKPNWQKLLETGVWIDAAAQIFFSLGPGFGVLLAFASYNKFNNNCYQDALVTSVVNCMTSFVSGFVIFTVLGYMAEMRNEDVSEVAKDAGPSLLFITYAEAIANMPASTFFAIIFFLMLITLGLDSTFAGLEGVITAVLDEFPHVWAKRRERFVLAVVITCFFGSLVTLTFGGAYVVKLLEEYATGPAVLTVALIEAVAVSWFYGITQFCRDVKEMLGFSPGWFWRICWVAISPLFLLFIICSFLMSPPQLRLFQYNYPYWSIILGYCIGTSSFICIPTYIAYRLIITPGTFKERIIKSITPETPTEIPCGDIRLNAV
T2 sequence (P23975 whole entry): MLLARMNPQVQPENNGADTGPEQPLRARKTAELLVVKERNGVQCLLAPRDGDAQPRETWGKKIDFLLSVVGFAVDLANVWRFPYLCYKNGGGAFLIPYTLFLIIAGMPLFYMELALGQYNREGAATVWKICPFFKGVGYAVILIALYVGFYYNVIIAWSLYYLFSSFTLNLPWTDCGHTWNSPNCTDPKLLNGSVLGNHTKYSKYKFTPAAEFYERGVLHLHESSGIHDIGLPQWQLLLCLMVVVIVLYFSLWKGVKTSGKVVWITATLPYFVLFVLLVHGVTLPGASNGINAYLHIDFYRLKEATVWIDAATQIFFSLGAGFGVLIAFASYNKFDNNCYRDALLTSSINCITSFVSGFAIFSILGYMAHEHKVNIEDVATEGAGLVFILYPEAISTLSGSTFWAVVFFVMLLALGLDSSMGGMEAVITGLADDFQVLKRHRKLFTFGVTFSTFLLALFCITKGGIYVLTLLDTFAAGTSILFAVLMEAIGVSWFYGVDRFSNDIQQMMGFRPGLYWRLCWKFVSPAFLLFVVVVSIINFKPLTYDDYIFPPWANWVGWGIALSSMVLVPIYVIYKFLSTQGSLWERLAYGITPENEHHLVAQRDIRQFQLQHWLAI

Take `Fc1cc(F)c(OCc2ccccc2C2CCNCC2)c(F)c1` [Example 1, 4-[2-(2,4,6-Trifluorophenoxymethyl)phenyl]piperidine]: the Ki on hSERT was ≤ 0.0126 µM; at hNET, ≤ 0.01 µM. Further, in series [1], the “thermal stability (thermal decomposition by DSC)” value is “no thermal decomposition below 200.0 °C”.
